Data on nine molecules can be found in ChEMBL document CHEMBL3259583, “Synthesis and biological evaluation of (+)-neopeltolide analogues: importance of the oxazole-containing side chain” (Bioorg Med Chem Lett, 2014).

The subject of assay [1] is A549. Briefly: Antiproliferative activity against human A549 cells after 120 hrs by WST-8 assay. The class given is functional, cell-based. Particulars: A549, 120 h.
A short description of assay [2]: Antiproliferative activity against human PANC1 cells after 96 hrs by WST-8 assay. The class given is functional, cell-based. As to conditions: PANC-1, 96 h.
In assay [3] the test system is A549. Put plainly: Ratio of (+)-Neopeltolide IC50 to compound IC50 for human A549 cells after 120 hrs by WST-8 assay. The class given is functional. (In general: Formazan colour is commonly taken as a measure of viable cells.)

The structures appear in SMILES notation. Bounds are passed on as bounds.

As a reminder, the IC50 is the midpoint of a concentration-inhibition curve. A higher IC50 goes with lower potency. As to `CCC[C@H]1C[C@@H](OC)C/C(C)=C\[C@@H]2C[C@@H](OC(=O)/C=C\CCc3coc(C=C(C)C)n3)C[C@H](CC(=O)O1)O2`, the IC50 was determined as 3900 nM in the assay on A549 [1] and 2800 nM in assay [2].

Take `CCC[C@H]1C[C@@H](OC)C/C(C)=C\[C@@H]2C[C@@H](OC(=O)CCCCc3coc(/C=C\CNC(=O)OC)n3)C[C@H](CC(=O)O1)O2`: the IC50 came out at 110 nM in the assay with A549 [1] and 26 nM in assay [2].

`CCC[C@H]1C[C@@H](OC)C/C(C)=C\[C@@H]2C[C@@H](OC(=O)/C=C(/C)CCc3coc(/C=C\CNC(=O)OC)n3)C[C@H](CC(=O)O1)O2`: the half-maximal inhibitory concentration (IC50) in the assay with A549 [1] was 6.3 nM; in assay [2] it was 6.4 nM.

`CCC[C@H]1C[C@@H](OC)C/C(C)=C\[C@@H]2C[C@@H](OC(=O)CCCCc3coc(CCCNC(=O)OC)n3)C[C@H](CC(=O)O1)O2`: the IC50 with A549 [1] is over 10000 nM; in assay [2] it was 3200 nM.

Consider `CCC[C@H]1C[C@@H](OC)C/C(C)=C\[C@@H]2C[C@@H](OC(=O)/C(C)=C\CCc3coc(/C=C\CNC(=O)OC)n3)C[C@H](CC(=O)O1)O2`, for which the IC50 was 2.5 nM with A549 [1] and 2.6 nM in assay [2].

For `CCC[C@H]1C[C@@H](OC)C/C(C)=C\[C@@H]2C[C@@H](OC(=O)/C=C\CCc3coc(/C=C\CNC(=O)OC)n3)C[C@H](CC(=O)O1)O2`, the values for the IC50 (with A549 [1]; in assay [2]) were 0.5 nM and 2.4 nM, respectively. Besides, the “Ratio IC50” value in the assay with A549 [3] was determined as 3.

In the case of `CCC[C@H]1C[C@@H](OC)C/C(C)=C\[C@@H]2C[C@@H](OC(=O)c3ccccc3CCc3coc(/C=C\CNC(=O)OC)n3)C[C@H](CC(=O)O1)O2`, the half-inhibitory concentration (IC50) in the assay on A549 [1] stood at 500 nM; in assay [2], 75 nM.

For `CCC[C@H]1C[C@@H](OC)C/C(C)=C\[C@@H]2C[C@@H](OC(=O)/C=C\CCc3coc(CCCNC(=O)OC)n3)C[C@H](CC(=O)O1)O2`, the concentration for half-maximal inhibition (IC50) was determined as 400 nM with A549 [1] and 200 nM in assay [2].

As to `C/C=C\c1nc(CC/C=C\C(=O)O[C@H]2C[C@@H]3CC(=O)O[C@@H](CCC)C[C@@H](OC)C/C(C)=C\[C@H](C2)O3)co1`, the IC50 in the assay with A549 [1] is 740 nM; in assay [2], 440 nM.
